Marks after values point to notes of the source that are not given here.
Tests used:
[1] = Body weight, mean arterial pressure and heart rate of cholesterol-fed hamsters treated for 8 weeks; assay type: in vivo, hamster; conditions: at 8 weeks
Protocol: (§1) Male F1 hamsters were fed 0.3% cholesterol and 10% coconut oil.
(§2) Four sets of hamsters were established (n=12-13 per group). The groups were controls, pravastatin (34 mg/kg/day), captopril (100 mg/kg/day) and pravastatin plus captopril (32 and 100 mg/kg/day, respectively). All animals were fed the same atherogenic diet. Pravastatin was delivered via the diet and captopril was gavaged daily. Hamsters in the control and pravastatin groups were gavaged with water. The animals were treated for 8 weeks. At 3 and 6 weeks the animals were fasted overnight and bled to determine plasma cholesterols and triglycerides. At 8 weeks, mean arterial pressure and heart rate were measured and then the animals were fixed by perfusing formalin. The aortic arch was stained with oil red O and the total area of the fatty streak (which consists of macrophage-foam cells) was measured by computer assisted image analysis.

[2] = hypercholesterolemic patients; cited from earlier work
[3] = Plasma lipids of cholesterol-fed hamsters (control and treated); assay type: in vivo, hamster; conditions: mean ± SD, at 5 weeks, pravastatin 34 mg/kg/day, captopril 100 mg/kg/day, combination 33 + 100 mg/kg/day
Protocol: as §1
as §2, with “The groups were controls, pravastatin (34 mg/kg/day), captopril (100 mg/kg/day) and pravastatin plus captopril (32 and 100 mg/kg/day, respectively).” left out, “At 3 and 6 weeks the animals were fasted overnight and bled to determine plasma cholesterols and triglycerides.” left out

[4] = test system: fatty streak (macrophage-foam cells) of the aortic arch; assay: Fatty streak area in the aortic arch (oil red O, image analysis) of cholesterol-fed hamsters; assay type: in vivo, hamster; conditions: 8 weeks; for Fatty Streak Area: mean ± SD, 6 arches per group, pravastatin 34 mg/kg/day, captopril 100 mg/kg/day, combination 33 + 100 mg/kg/day
Protocol: as §1
as §2, with “The groups were controls, pravastatin (34 mg/kg/day), captopril (100 mg/kg/day) and pravastatin plus captopril (32 and 100 mg/kg/day, respectively).” left out

[5] = Body weight, mean arterial pressure and heart rate of cholesterol-fed hamsters treated for 8 weeks; assay type: in vivo, hamster; conditions: mean ± SD, combination 33 + 100 mg/kg/day; for HR (Heart Rate) / MAP (Mean Arterial Pressure): at 8 weeks, pravastatin 34 mg/kg/day, captopril 100 mg/kg/day; for Body Weight: hamsters on atherogenic diet, 8 weeks, pravastatin 34 mg/kg/day (diet), captopril 100 mg/kg/day (gavage)

| SMILES | heart rate less than control hamsters ([1]; compared with control hamsters) [%] | mean arterial pressure lower than controls ([1]; compared with control hamsters) [%] | change of serum cholesterol [2] [%] | increase of HDL [2] [%] | HDL-C [3] | TC [3] | TG [3] | VLDL + LDL-C [3] | reduction of fatty streak (lesion) area compared to control group [4] | Fatty Streak Area [4] | HR (Heart Rate) [5] | MAP (Mean Arterial Pressure) [5] | Body Weight [5] [g] | effect on blood pressure ([1]; 34 mg/kg/day) | effect on heart rate ([1]; 34 mg/kg/day) |
| --- | --- | --- | --- | --- | --- | --- | --- | --- | --- | --- | --- | --- | --- | --- | --- |
| C[C@H](CS)C(=O)N1CCC[C@H]1C(=O)O [Captopril, 1-[(2S)-3-mercapto-2-methylpropionyl]-L-proline] | 7 | 21 | −18 | 27 | 72 ± 23 mg/dL | 660 ± 94 mg/dL | 1105 ± 259 mg/dL | 588 ± 83 mg/dL | approximately 50% | 245 ± 154^c μm^2 × 10^3 | 348 ± 22^a beats/min. | 110 ± 17^a mmHg | 133 ± 12 | – | – |
| CC[C@H](C)C(=O)O[C@H]1C[C@H](O)C=C2C=C[C@H](C)[C@H](CC[C@@H](O)C[C@@H](O)CC(=O)O)[C@H]21 [Pravastatin, pravastatin] | – | – | – | – | 117 ± 7^a mg/dl | 456 ± 107^a mg/dl | 185 ± 34^a mg/dl | 339 ± 93^a mg/dl | approximately 50% | 248 ± 119^b μm^2 × 10^3 | 355 ± 27 beats/min. | 138 ± 13 mmHg | 139 ± 8 | no effect | no effect |
